For one series, the system named is Aβtotal. The series is described as follows: In vivo efficacy: brain soluble Aβtotal in non-transgenic rodents (ELISA). The note with it: Mus musculus, dose 30 mg/kg oral dosing, brain soluble fraction, animals sacrificed after 4 h, untreated animals (Ctrl) set at 100, read-out: Aβtotal (% vs Ctrl)_Mean. The source says:
To determine whether acute administration of an Aβ42 lowering agent would reduce Aβ42 levels in vivo, non-transgenic rodents, e.g. mice or rats were used. Animals treated with the Aβ42 lowering agent were examined and compared to those untreated or treated with vehicle and brain levels of soluble Aβ42 and total Aβ were quantitated by standard techniques, for example, using ELISA. Treatment periods varied from hours (h) to days and were adjusted based on the results of the Aβ42 lowering once a time course of onset of effect could be established.
A typical protocol for measuring Aβ42 lowering in vivo is shown but it is only one of many variations that could be used to optimize the levels of detectable Aβ. For example, Aβ42 lowering compounds were formulated in 20% of Captisol® (a sulfobutyl ether of β-cyclodextrin) in water or 20% hydroxypropyl β cyclodextrin. The Aβ42 lowering agents were administered as a single oral dose or by any acceptable route of administration to overnight fasted animals. After 4 h, the animals were sacrificed and Aβ42 levels were analysed.
Blood was collected by decapitation and exsanguinations in EDTA-treated collection tubes. Blood was centrifuged at 1900 g for 10 minutes (min) at 4° C. and the plasma recovered and flash frozen for later analysis. The brain was removed from the cranium and hindbrain. The cerebellum was removed and the left and right hemisphere were separated. The left hemisphere was stored at −18° C. for quantitative analysis of test compound levels. The right hemisphere was rinsed with phosphate-buffered saline (PBS) buffer and immediately frozen on dry ice and stored at −80° C. until homogenization for biochemical assays.
Mouse brains from non-transgenic animals were resuspended in 8 volumes of 0.4% DEA (diethylamine)/50 mM NaCl containing protease inhibitors (Roche-11873580001 or 04693159001) per gram of tissue, e.g. for 0.158 g brain, add 1.264 ml of 0.4% DEA. All samples were homogenized in the FastPrep-24 system (MP Biomedicals) using lysing matrix D (MPBio #6913-100) at 6 m/s for 20 seconds. Homogenates were centrifuged at 221.300×g for 50 min. The resulting high speed supernatants were then transferred to fresh eppendorf tubes. Nine parts of supernatant were neutralized with 1 part 0.5 M Tris-HCl pH 6.8 and used to quantify Aβtotal and Aβ42.
To quantify the amount of Aβtotal and Aβ42 in the soluble fraction of the brain homogenates, Enzyme-Linked-Immunosorbent-Assays were used. Briefly, the standards (a dilution of synthetic Aβ1-40 and Aβ1-42, Bachem) were prepared in 1.5 ml Eppendorf tube in Ultraculture, with final concentrations ranging from 10000 to 0.3 pg/ml. The samples and standards were co-incubated with HRPO-labelled N-terminal antibody for Aβ42 detection and with the biotinylated mid-domain antibody 4G8 for Aβtotal detection. 50 μl of conjugate/sample or conjugate/standards mixtures were then added to the antibody-coated plate (the capture antibodies selectively recognize the C-terminal end of Aβ42, antibody JRF/cAβ42/26, for Aβ42 detection and the N-terminus of Aβ, antibody JRF/rAβ/2, for Aβtotal detection). The plate was allowed to incubate overnight at 4° C. in order to allow formation of the antibody-amyloid complex. Following this incubation and subsequent wash steps the ELISA for Aβ42 quantification was finished by addition of Quanta Blu fluorogenic peroxidase substrate according to the manufacturer's instructions (Pierce Corp., Rockford, Ill.). A reading was performed after 10 to 15 min (excitation 320 nm/emission 420 nm).
For Aβtotal detection, a Streptavidine-Peroxidase-Conjugate was added, followed 60 min later by an additional wash step and addition of Quanta Blu fluorogenic peroxidase substrate according to the manufacturer's instructions (Pierce Corp., Rockford, Ill.). A reading was performed after 10 to 15 min (excitation 320 nm/emission 420 nm). […]

On to `Cc1cn(-c2ccc3n(c2=O)C[C@@H](C)N(Cc2cc(N4CCC(C)CC4)ccc2Cl)C3=O)cn1` [compound 80], for which, in the series with Aβtotal, the response vs control in vivo at 30 mg/kg worked out at 119%. The term melting point denotes the temperature of the solid-liquid transition. `Cc1cn(-c2ccc3n(c2=O)CCN(Cc2ccc(Cl)c(C(F)(F)F)c2)C3=O)cn1` [compound 65] registered a melting point of 195.1 °C. Also, in the series with Aβtotal, the response vs control in vivo at 30 mg/kg stood at 114%. As to `Cc1cn(-c2ccc3n(c2=O)CC(C)N(C(C)c2cc(C(F)(F)F)cc(C(F)(F)F)c2)C3=O)cn1.Cl` (single isomer, unassigned) [compound 112], the melting point came to 259 °C. In the case of `Cc1cn(-c2ccc3n(c2=O)C[C@@H](C)N(Cc2cccc(C(C)(C)C)c2)C3=O)cn1` [compound 23], in the series on Aβtotal, the response vs control in vivo at 30 mg/kg stood at 122%.

Compound `Cc1cn(-c2ccc3n(c2=O)CC(C)N(C(C)c2cc(C(F)(F)F)cc(C(F)(F)F)c2)C3=O)cn1.Cl` (single isomer, unassigned) [compound 111] registered a melting point of 147.3 °C. With `Cc1cn(-c2ccc3n(c2=O)CC(C)N(Cc2cc(OCC4CC4)cc(C(F)(F)F)c2)C3=O)cn1.Cl` (centres unmarked) [compound 6], the melting point was found to be 175.4 °C. In addition, in the series on Aβtotal, the response vs control in vivo at 30 mg/kg stood at 102%. On to `Cc1cn(-c2ccc3n(c2=O)CC(C)N(C(C)c2cn(C)c4cc(F)c(Cl)cc24)C3=O)cn1` (single isomer, unassigned) [compound 189], for which the melting point came to 263 °C. As for `Cc1cn(-c2ccc3n(c2=O)CCN(C(C)c2cccc(Cl)c2Cl)C3=O)cn1` (single isomer, unassigned) [10a], the melting point was found to be 203.8 °C. For the same compound, the response vs control in vivo at 30 mg/kg in the series with Aβtotal turned out to be 118%.

On to `Cc1cn(-c2ccc3n(c2=O)CC(C)N(C(C)c2c[nH]c4c(F)cc(Cl)cc24)C3=O)cn1` (single isomer, unassigned) [compound 219], for which the melting point came to 263 °C. The compound `Cc1cc(CN2C(=O)c3ccc(-n4cnc(C)c4)c(=O)n3C[C@H]2C)cc(C(F)(F)F)c1` [compound 59] displayed a melting point of 167.7 °C. Further, in the series on Aβtotal, the response vs control in vivo at 30 mg/kg is 126%. Regarding `Cc1cn(-c2ccc3n(c2=O)CCN(Cc2ccc(C)c(N4CCCCC4)c2)C3=O)cn1` [compound 99], the response vs control in vivo at 30 mg/kg with Aβtotal was 113%. The compound `Cc1cn(-c2cc(F)c3n(c2=O)C[C@@H](C)N(Cc2cc(C(F)(F)F)cc(C(F)(F)F)c2)C3=O)cn1` [compound 158] showed a melting point of 137.1 °C. As for `CCC1Cn2c(ccc(-n3cnc(C)c3)c2=O)C(=O)N1Cc1cc(C(F)(F)F)cc(C(F)(F)F)c1.Cl` (centres unmarked) [compound 1], the melting point is 203.6 °C. Also, the response vs control in vivo at 30 mg/kg in the series with Aβtotal stood at 89%. `C[C@@H]1Cn2c(ccc(-n3cnc(Cl)c3)c2=O)C(=O)N1Cc1cc(C(F)(F)F)cc(C(F)(F)F)c1` [compound 118] displayed a melting point of 157.9 °C. `Cc1cn(-c2ccc3n(c2=O)C[C@@H](C)N(Cc2ccc(C(F)(F)F)c(C(F)(F)F)c2)C3=O)cn1` [compound 46] displayed a melting point of 145.6 °C. Also, the response vs control in vivo at 30 mg/kg in the series with Aβtotal was found to be 87%. The like results for `Cc1cn(-c2ccc3n(c2=O)CCN(Cc2ccccc2C)C3=O)cn1` [compound 22] were, in that order, 186.1 °C and 92%.

As to `Cc1cn(-c2ccc3n(c2=O)CCN(C(C)c2cn(C)c4cc(F)c(Cl)cc24)C3=O)cn1` (single isomer, unassigned) [compound 185], the melting point is 258 °C. `Cc1cn(-c2ccc3n(c2=O)C[C@@H](C)N(Cc2cc(Cl)cc(C(F)(F)F)c2)C3=O)cn1` [compound 63] gave a melting point of 180.4 °C. The response vs control in vivo at 30 mg/kg in the series with Aβtotal was 124%. Take `Cc1cn(-c2ccc3n(c2=O)C[C@@H](C)N(Cc2cc(N4CCCC4)ccc2Cl)C3=O)cn1` [compound 82]: in the series on Aβtotal, the response vs control in vivo at 30 mg/kg was determined as 125%. As for `Cc1cn(-c2ccc3n(c2=O)C[C@@H](C)N(Cc2ccc(Cl)c(Cl)c2)C3=O)cn1` [compound 2], the melting point worked out at 185 °C. The response vs control in vivo at 30 mg/kg with Aβtotal came out at 100%. `CCc1cn(-c2ccc3n(c2=O)CC(C)N(Cc2cc(C(F)(F)F)cc(C(F)(F)F)c2)C3=O)cn1.Cl` (centres unmarked) [compound 7] showed a melting point of 290 °C. In addition, in the series on Aβtotal, the response vs control in vivo at 30 mg/kg amounted to 94%. Compound `Cc1cn(-c2ccc3n(c2=O)C[C@@H](C)N(Cc2ccc(F)c(F)c2)C3=O)cn1` [compound 133] had a melting point of 198.1 °C. `Cc1cn(-c2ccc3n(c2=O)CC(C)N(Cc2cc(C(F)(F)F)cc(C(F)(F)F)c2)C3=O)cn1` (centres unmarked) [compound 3] yielded a melting point of 176.6 °C. In the series with Aβtotal, the response vs control in vivo at 30 mg/kg stood at 98%.

As to `Cc1cn(-c2ccc3n(c2=O)C[C@@H](C)N(Cc2ccc(Cl)c(C(F)(F)F)c2)C3=O)cn1` [compound 62], the response vs control in vivo at 30 mg/kg in the series with Aβtotal is 98%. Turning to `Cc1cn(-c2ccc3n(c2=O)C[C@@H](C)N(CCc2cc(C(F)(F)F)cc(C(F)(F)F)c2)C3=O)cn1` [compound 50], in the series with Aβtotal, the response vs control in vivo at 30 mg/kg came out at 91%. In the case of `Cc1cn(-c2ccc3n(c2=O)CCN(Cc2cccc(-c4ccccc4)c2)C3=O)cn1` [compound 5], the melting point amounted to 165.6 °C. The response vs control in vivo at 30 mg/kg in the series with Aβtotal was 87%.

(Values after patent publication US20150141411A1, “SUBSTITUTED 3,4-DIHYDRO-2H-PYRIDO[1,2-A]PYRAZINE-1,6-DIONE DERIVATIVES USEFUL FOR THE TREATMENT OF (INTER ALIA) ALZHEIMER'S DISEASE” (Janssen Pharmaceuticals, Inc., priority 2012, published 2015).)
